In patent US10246419B2, “Liver X receptor (LXR) modulators” (Ralexar Therapeutics, Inc., priority 2013, dated 2019):

Target: human LXRβ (AA 153-461) LBD (Homo sapiens (Human), UniProt P55055)
Assay: Gal4 LXRβ cotransfection assay (LXRβ Gal fusion assay)
Format: cell-based
Details: HEK 293 cells transiently transfected, Gal4-responsive luciferase reporter, compounds 0.01-10 μM
Protocol: For transient transfection of HEK 293 cells, 6×10^3 cells are plated into 96-well dishes. Each well is transfected with 25 ng 5×UAS-luciferase reporter (pG5luc) and 25 ng of pM human LXRβ (AA 153-461) LBD plasmid using Fugene 6 reagent (Roche; Indianapolis, Ind.). The chimeric protein is assessed for the ability to transactivate a Gal4-responsive luciferase reporter plasmid in a concentration-responsive manner to compounds (0.01-10 μM). Luciferase activity at each dose concentration is measured in triplicate using standard substrate reagents (BD Biosciences; San Diego, Calif.).

Sequence of human LXRβ (AA 153-461) LBD (P55055 153-460 limits assumed): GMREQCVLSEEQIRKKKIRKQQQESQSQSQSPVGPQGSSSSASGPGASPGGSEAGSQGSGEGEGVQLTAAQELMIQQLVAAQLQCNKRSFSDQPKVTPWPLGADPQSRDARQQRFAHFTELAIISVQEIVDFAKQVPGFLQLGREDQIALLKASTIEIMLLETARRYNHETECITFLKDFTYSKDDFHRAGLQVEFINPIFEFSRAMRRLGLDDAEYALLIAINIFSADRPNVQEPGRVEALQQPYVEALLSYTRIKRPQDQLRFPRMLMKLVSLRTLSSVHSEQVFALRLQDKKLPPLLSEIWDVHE

Row | EC50 [nM] | SMILES
1 | < 1000 | CC(C)Cn1nc(C(F)(F)F)cc1-c1ccc(-c2cccc(S(C)(=O)=O)c2)cc1 [Compound 4, 1-isobutyl-5-(3′-(methylsulfonyl)biphenyl-4-yl)-3-(trifluoromethyl)-1H-pyrazole]
2 | < 1000 | CC(C)Cn1nc(C(F)(F)F)cc1-c1ccc(-c2ccc(CO)c(S(C)(=O)=O)c2)cc1 [Compound 5, (4′-(1-isobutyl-3-(trifluoromethyl)-1H-pyrazol-5-yl)-3-(methylsulfonyl)biphenyl-4-yl)methanol]
3 | < 1000 | CC(C)Cn1nc(C(=O)NCC(F)(F)F)cc1-c1ccc(-c2cccc(S(C)(=O)=O)c2)cc1 [Compound 6, 1-Isobutyl-5-(3′-(methylsulfonyl)-[1,1′-biphenyl]-4-yl)-N-(2,2,2-trifluoroethyl)-1H-pyrazole-3-carboxamide]
4 | < 1000 | CC(C)Cn1nc(C(=O)NCC(F)(F)F)cc1-c1ccc(-c2ccc(CO)c(S(C)(=O)=O)c2)cc1 [Compound 7, 5-(4′-(Hydroxymethyl)-3′-(methylsulfonyl)-[1,1′-biphenyl]-4-yl)-1-isobutyl-N-(2,2,2-trifluoroethyl)-1H-pyrazole-3-carboxamide]
5 | 1000 to 10000 | CC(C)Cc1nc(C(C)(C)O)cn1-c1ccc(-c2cccc(S(C)(=O)=O)c2)cc1 [Compound 8, 2-(2-isobutyl-1-(3′-(methylsulfonyl)-[1,1′-biphenyl]-4-yl)-1H-imidazol-4-yl)propan-2-ol]
6 | 1000 to 10000 | C=C(C)c1cc(-c2ccc(-c3cccc(S(C)(=O)=O)c3)cc2)n(CC(C)C)n1 [Compound 9, 1-isobutyl-5-(3′-(methylsulfonyl)-[1,1′-biphenyl]-4-yl)-3-(prop-1-en-2-yl)-1H-pyrazole]
7 | 1000 to 10000 | CC(C)Cn1nc(C(C)(C)O)cc1-c1ccc(-c2ccc(CO)c(S(C)(=O)=O)c2)cc1 [Compound 10, 2-(5-(4′-(Hydroxymethyl)-3′-(methylsulfonyl)-[1,1′-biphenyl]-4-yl)-1-isobutyl-1H-pyrazol-3-yl)propan-2-ol]
8 | 1000 to 10000 | CC(C)Cn1nc(C(C)(C)O)cc1-c1ccc(-c2cccc(S(C)(=O)=O)c2)cc1 [Compound 11, 2-(1-isobutyl-5-(3′-(methylsulfonyl)-[1,1′-biphenyl]-4-yl)-1H-pyrazol-3-yl)propan-2-ol]
9 | 1000 to 10000 | CC(C)Cn1nc(C(C)C)cc1-c1ccc(-c2cccc(S(C)(=O)=O)c2)cc1 [Compound 12, 1-isobutyl-3-isopropyl-5-(3′-(methylsulfonyl)-[1,1′-biphenyl]-4-yl)-1H-pyrazole]
10 | < 1000 | CS(=O)(=O)c1cccc(-c2ccc(-c3cc(C(F)(F)F)nn3CC3CC3)cc2)c1 [Compound 18, 1-(cyclopropylmethyl)-5-(3′-(methylsulfonyl)-[1,1′-biphenyl]-4-yl)-3-(trifluoromethyl)-1H-pyrazole]
11 | > 10000 | CCC(C)n1nc(C(F)(F)F)cc1-c1ccc(-c2cccc(S(C)(=O)=O)c2)cc1 (stereo not shown) [Compound 19, 1-(sec-butyl)-5-(3′-(methylsulfonyl)-[1,1′-biphenyl]-4-yl)-3-(trifluoromethyl)-1H-pyrazole]
12 | > 10000 | CS(=O)(=O)c1cccc(-c2ccc(-c3cc(C(F)(F)F)nn3C3CCCCC3)cc2)c1 [Compound 20, 1-cyclohexyl-5-(3′-(methylsulfonyl)-[1,1′-biphenyl]-4-yl)-3-(trifluoromethyl)-1H-pyrazole]
13 | < 1000 | CS(=O)(=O)c1cccc(-c2ccc(-c3cc(C(F)(F)F)nn3CC3CCCCC3)cc2)c1 [Compound 21, 1-(cyclohexylmethyl)-5-(3′-(methylsulfonyl)-[1,1′-biphenyl]-4-yl)-3-(trifluoromethyl)-1H-pyrazole]
